# According to patent publication US5783562A, “Luteinizing hormone releasing hormone analogs” (Asta Medica Aktiengesellschaft, priority 1990, dated 1998):
# Where two headings read alike, the source gives them in different places. Non-standard residues stand in square brackets, D forms with d. Residues, ends and D or L forms follow the SMILES beside them. dPhe(4-Cl) = N[C@H](Cc1ccc(Cl)cc1)C(=O)O; d2Nal = N[C@H](Cc1ccc2ccccc2c1)C(=O)O; d3Pal = N[C@H](Cc1cccnc1)C(=O)O
# How the values were obtained:
# mast cells [1] = type: cell-based, rat
# Description: The healthy, adult, male SD rats (BW 200-250 g) used in this experiment were housed in the same conditions as for the adult, female SD rats above. After anesthetizing with CO2, the peritoneal cavity was washed with 50 ml of PIPES AC medium containing 20 units of heparin. Following centrifugation at 200×g for 8 min. at 4° C., the cells were washed again and resuspended to a concentration of 8-to-24×10^5 total leukocytes/ml in […]. This suspension contained approximately 5-10% mast cells. Washed cells were used immediately after collection and were prewarmed for 5 min. at 37° C. prior to pipetting 0.3 ml aliquots into polystyrene tubes containing 0.3 ml of diluted peptide. The mixtures were incubated for 15 min. at 37° C., and the reaction was stopped by centrifugation at 400×g for 15 min. at 4° C. The supernatants were assayed for histamine content by manual fluorometric assay method after successful extraction with n-butanol and n-heptane. The histamine content can be obtained from the histamine standard curve (see below). The percentage of histamine release can be calculated from the following equation: [formula] where E is the fluorometric reading of the experimental sample, B is the fluorometric reading of samples with cells and buffer only, and C is the fluorometric reading of "complete" samples (cells treated with HCIO4). The standard curve can be obtained by plotting the OD values on a fluorometer at 350 nm/450 nm (activation/fluorescent) against the concentrations of serially diluted solutions of accurately weighed histamine hydrochloride. The relative parameter (r) of the histamine standard curve can be 0.9998, and the lowest detectable concentration of histamine is 0.5 ng/ml. The ED50 value of a peptide can be determined from the dose response curves obtained by plotting the histamine release versus the peptide concentration on semilogarithmic paper. All peptide samples should be tested with mast cells from a minimum of 3 different rats.
# [2] = Water-solubility / hydrophilicity of the peptides; type: physicochemical
# rat ovulation = assay: Corbin's rat antiovulation method (antiovulatory activity, AOA); type: in vivo; conditions: in saline, at noon of proestrus, female SD rats
# Description: Corbin's rat antiovulation method was used in the present invention. Healthy, adult, female SD rats (BW 200-250 g) were used in this experiment. All animals were maintained at 22°-24° C. and on a 14 hr./10 hr. (light/dark) schedule. They were given standard food and water ad libitum. Only those rats showing at least two consecutive 4-day estrous cycles in vaginal smear examination could be used in this experiment. The rats were given peptides (LHRH antagonists) at noon of proestrus with different doses in saline solution. The rats were sacrificed the next day, and both portions of their oviducts were examined using a dissecting microscope in order to determine the ovum number. The rats were divided into several groups according to the dosing, and each group consisted of about 10 rats. The control group, which was given an equivalent amount of saline, consisted of 9-10 rats. […] Evaluation of Histamine Releasing Activity
# mast cells [3] = conditions: neuropeptide SP, background; cited from earlier work
compound,measurement,setting,value
CC(=O)N[C@H](Cc1ccc2ccccc2c1)C(=O)N[C@H](Cc1ccc(Cl)cc1)C(=O)N[C@H](Cc1ccc(O)cc1)C(=O)N[C@@H](CO)C(=O)N[C@@H](CCCCN)C(=O)N[C@H](Cc1cccnc1)C(=O)N[C@@H](CC(C)C)C(=O)N[C@@H](CCCNC(=N)N)C(=O)N1CCC[C@H]1C(=O)N[C@H](C)C(N)=O [Compound 4] (Ac-[d2Nal][dPhe(4-Cl)][dY]SK[d3Pal]LRP[dA]-NH2),HRA (μg/ml) ED50 ± SEM,mast cells [1],6.1 µg/mL
"CC(=O)N[C@H](Cc1ccc2ccccc2c1)C(=O)N[C@H](Cc1ccc(Cl)cc1)C(=O)N[C@H](Cc1cccnc1)C(=O)N[C@@H](CO)C(=O)N[C@@H](CCCNC(=N)N)C(=O)N[C@H](Cc1cccnc1)C(=O)N[C@@H](CC(C)C)C(=O)N[C@@H](CCCNC(=N)N)C(=O)N1CCC[C@H]1C(=O)N[C@H](C)C(N)=O [IV, NAc-D2Nal^1 -DpClPhe^2 -D3Pal^3 -Ser^4 -Arg^5 -D3Pal^6 -Leu^7 -Arg^8 -Pro^9 -DAla^10 -NH2] (Ac-[d2Nal][dPhe(4-Cl)][d3Pal]SR[d3Pal]LRP[dA]-NH2)",hydrophilicity,[2],very strong hydrophilicity
NAc-D2Nal^1 -DpClPhe^2 -DPhe^3 Ser^4 -Arg^5 -D3Pal^6 -Leu^7 -Arg^8 -Pro^9 -DAla^10 -NH2 [V],% AOA/μg 0.25,rat ovulation; 0.25 μg,29%
same,% AOA/μg 0.5,rat ovulation; 0.5 μg,60%
same,% AOA/μg 1.0,rat ovulation; 1.0 μg,100%
same,HRA (μg/ml) ED50 ± SEM,"mast cells [1]; in vitro histamine release, rat peritoneal mast cells",7.4 µg/mL
Arg^1 -Pro^2 -Lys^3 -Pro^4 -Gln^5 -Gln^6 -Phe^7 -Phe^8 -Gly^9 -Leu^10 -Met^11 -NH2 [neuropeptide SP],ED50 for HRA,mast cells [3],5 to 15 µM
"CC(=O)N[C@H](Cc1ccc2ccccc2c1)C(=O)N[C@H](Cc1ccc(Cl)cc1)C(=O)N[C@H](Cc1cccnc1)C(=O)N[C@@H](CO)C(=O)N[C@@H](Cc1ccc(O)cc1)C(=O)N[C@H](Cc1cccnc1)C(=O)N[C@@H](CC(C)C)C(=O)N[C@@H](CCCNC(=N)N)C(=O)N1CCC[C@H]1C(=O)N[C@H](C)C(N)=O [III, NAc-D2Nal^1 -DpClPhe^2 -D3Pal^3 -Ser^4 -Tyr^5 -D3Pal^6 -Leu^7 -Arg^8 -Pro^9 -DAla^10 -NH2] (Ac-[d2Nal][dPhe(4-Cl)][d3Pal]SY[d3Pal]LRP[dA]-NH2)",HRA (μg/ml) ED50 ± SEM,mast cells [1],9.8 µg/mL
